# Laboratory results: patent publication US11149047B2, “Aryl imidazoles for treatment of cancer” (Aptose Biosciences Inc., priority 2017, dated 2021)
# Columns and labels:
# MV4-11 cells = experiment: Flow cytometry cell-cycle analysis; assay type: cell-based; conditions: 1 μmol/L, 24-hour exposure
# Protocol: (§1) Cells were treated as described above. To determine apoptosis, cells were stained with FITC-Annexin V and propidium iodide (PI; BD Pharmingen, catalog #556570) and then analyzed on BD Accuri C6 flow cytometer. To measure DNA synthesis and phases of cell cycle, treated cells were stained with 5-ethynyl-2′-deoxyuridine (Edu) Alexa Fluor 488 (Thermo Fisher Scientific, catalog #C10425) and PI (PI/RNase A staining solution, BD Biosciences, catalog #550825). The dead cells were excluded from analysis by using Live/Dead Fixable Far Red Dead Cell Stain Kit (Thermo Fisher Scientific, catalog #L34973). Staining was performed as per the manufacturers' instructions.
# Previous studies reported upregulation of KLF4 and CDKN1A expression as a potential mechanism of APT0-COMPOUND I activity in tumors. […] The upregulation of CDKN1A mRNA increased with duration of exposure in all AML cell lines tested (FIGS. 15D and 15E). At later time points, CDKN1A expression began to decrease, likely due to increasing cell death. Induction of CDKN1A expression is typically associated with a subsequent G0-G1, cell-cycle arrest, which was observed following COMPOUND I treatment of solid tumor lines.
# [1] = tested on: AML cells (MV4-11, KG-1, EOL-1); experiment: Flow cytometry cell-cycle analysis, time course; assay type: cell-based; conditions: IC50 concentration
# Protocol: as §1
# There was no perturbation of cell-cycle phase distribution in cells treated with vehicle alone. An increase in the fraction of cells in G0-G1 was detected as early as 2 hours, and this fraction continued to increase in a time-dependent manner throughout the 24-hour period of drug exposure (FIGS. 9D-F).
# [2] = tested on: G4 sequences (telomere, MYC, KIT, rRNA oligos); experiment: Modified FRET assay, melting of G-quadruplex oligos; assay type: binding, human; conditions: FIG. 13C; COMPOUND I data at 6-hour incubation
# Protocol: FRET assay and data analysis was performed as described previously and modified by using dual labeled (5′ FAM-3′ BHQ1) single-stranded oligos. Melting temperature of each oligo was assessed in the presence of vehicle DMSO or escalating concentrations of COMPOUND I, Fe(COMPOUND I)3, CX-5461, or TMPyP4 using a Roche LightCycler 96 [at 37° C. for 300 seconds followed by temperature increased in […] intervals up to 91° C. (25 steps) with 300-second total incubation time at each temperature]. Drug and oligo reaction mixes were analyzed immediately or incubated for 6 hours at room temperature and then analyzed. […] COMPOUND I data are presented for 6-hour time point.
# The ability of COMPOUND I (parental monomeric form of the drug) and Fe(COMPOUND I)3 to bind and stabilize G4 sequences using a modified FRET assay was evaluated (FIGS. 21 and 22). TMPyP4, a well-known G4 ligand, and CX-5461, a clinical stage molecule recently reported to have G4-binding properties, were utilized as controls to assess the specificity of COMPOUND I and Fe(COMPOUND I)3 for G4-stabilizing activity.
# [3] = tested on: PEO4 and PEO1 ovarian cancer cell lines; experiment: Sensitivity of BRCA2-proficient and -deficient cells; assay type: cell-based; conditions: FIG. 3D
# Protocol: Cells were plated and treated with the indicated drugs in 96-well plates for 5 days. Cell viability was measured using CellTiter 96 AQueous one solution (MTS) cell proliferation assay purchased from Promega, and IC50 values were calculated using GraphPad Prism 6 Software.
# The finding that COMPOUND I produced DNA damage led to the investigation of whether cells deficient in homologous recombination were hypersensitive to this drug. The hypothesis that there would be synthetic lethality between COMPOUND I and BRCA1 deficiency using isogenic pairs of BRCA1-proficient and -deficient human cell lines was tested. […] The conclusion that BRCA1-deficient cells are hypersensitive to COMPOUND I was further supported by the results obtained in MCF7 E7 cells in which BRCA1 expression is stably knocked down by the expression of an shRNAi. […] Whether BRCA2-deficient cells are more sensitive to COMPOUND I was tested using the BRCA2-proficient and BRCA2-deficient ovarian cancer cell lines, PEO4 and PEO1, respectively. PEO1 is BRCA2-deficient and sensitive to cisplatin and a poly(ADP-ribose) polymerase inhibitor AG14361. PEO4 was derived from ascites at the time of relapse with cisplatin resistance and contains a secondary mutation that restores BRCA2 function. […] Thus, loss of either BRCA1 or BRCA2 function renders malignant cells hypersensitive to COMPOUND I.
structure (smiles),measurement,setting,value
"Cc1[nH]c2ccc(F)cc2c1-c1nc2c3cccnc3c3ncccc3c2[nH]1 [COMPOUND I, 2-(5-fluoro-2-methyl-1H-indol-3-yl)-1H-imidazo[4,5-f][1,10]phenanthroline]",G0-G1 cell-cycle arrest,MV4-11 cells,all live cells had arrested in G0-G1
same,earliest time an increase in the fraction of cells in G0-G1 was detected,[1],2 h
same,stabilization of G4 sequences (ΔT1/2),[2],"time-dependent stabilization of G4 motifs, but it demonstrated the greatest propensity for stabilizing the MYC G4 sequences"
same,effect of restoration of BRCA2 function (PEO4 vs PEO1),[3],increased resistance
